Measurements reported in patent publication US11548899B2, “Fused 1,4-oxazepines and related analogs as BET bromodomain inhibitors” (THE REGENTS OF THE UNIVERSITY OF MICHIGAN, priority 2016, dated 2023).
Where “and” joins values, the source holds several entries; their conditions need not be identical. Equal entries are not always repeated. Where two headings read alike, the source gives them in different places.

How the values were obtained:
recombinant BRD4 BD2 = target: T1, recombinant BRD4 BD2 (Homo sapiens, UniProt O60885); test: Competitive fluorescence-polarization (FP) binding assay, BRD4 BD2; settings: protein 6 nM, probe 1.5 nM
T1 construct: recombinant BRD4 BD1 and BRD4 BD2 proteins
Protocol: Fluorescence Polarization (FP) competitive binding studies were carried out using a FAM labeled fluorescent probe, see Cpd. […] Equilibrium dissociation constants (Kd) values of the fluorescent probe to BRD4 BD1 and BD2 proteins were determined from protein saturation experiments by monitoring the total fluorescence polarization of mixtures composed with the fluorescent probe at a fixed concentration and proteins with increasing concentrations up to full saturation. Serial dilutions of testing proteins were mixed with the fluorescent probe to a final volume of 200 μl in the assay buffer (100 mM phosphate buffer, pH=6.5, 0.01% Triton X-100 (Sigma, 282103) being added right before assays). Final fluorescent probe concentration was 1.5 nM for both proteins. Plates were incubated at room temperature for 30 minutes with gentle shaking to assure equilibrium. FP values in millipolarization units (mP) were measured using the Infinite M-1000 plate reader (Tecan U.S., Research Triangle Park, N.C.) in Microfluor 1 96-well, black, round-bottom plates (Thermo Scientific, Waltham, Mass.) at an excitation wavelength of 485 nm and an emission wavelength of 530 nm.
The IC50 and Ki values of compounds were determined in a competitive binding experiment. […] Mixtures of 10 μl of the tested compounds in assay buffer with 40% Ethylene Glycol and 190 μl of preincubated protein/probe complex solution in the assay buffer (100 mM potassium phosphate, pH 6.5, 0.01% Triton X-100) were added into assay plates which were incubated at room temperature for 30 minutes with gentle shaking. Final concentrations of proteins were 10 and 6 nM in assays for BRD4 BD1 and BD2, respectively. Final probe concentration is 1.5 nM in both assays. […] FP values were measured as described above. IC50 values were determined by nonlinear regression fitting of the competition curves.

MOLM-13 = test: Cell growth inhibition, 4-day proliferation assay, MOLM-13; assay type: cell-based; settings: read-out: Cell Viability (IC50, μM) MOLM-13
Protocol: The effect of representative Compounds of the Disclosure on cell viability was determined in a 4-day proliferation assay. Cells were maintained in the appropriate culture medium with 10% FBS at 37° C. and an atmosphere of 5% CO2. All the cell lines were used within three months of thawing fresh vials.
Cells were seeded in 96-well flat bottom (Corning COSTAR, Corning, N.Y., cat #3595) or white opaque cell culture plates (BD Falcon, cat #353296) at a density of 3,000-10,000 cells/well in 75 μl of culture medium. Compounds were serially diluted in the appropriate medium, and 75 μl of the diluted compounds were added to the appropriate wells of the cell plate. After the addition of compounds, the cells were incubated at 37° C. in an atmosphere of 5% CO2 for 4 days. Cell viability was determined using the CellTiter-Glo® Luminescent Cell Viability Assay Kit (Promega, Madison, Wis.) for leukemia cells and WST (2-(2-methoxy-4-nitrophenyl)-3-(4-nitrophenyl)-5-(2,4-disulfophenyl)-2H-tetrazolium, monosodium salt) Cell Counting-8 Kit (Dojindo Molecular Technologies, Inc., Rockville, Md.) for adhenrent cells according to the manufacturers' instructions. […]
For CellTiter-Glo assay (suspension cells), 100 μl of CellTiter-Glo® Reagent was added to each well, and then the plates were incubated at room temperature for 10-20 minutes. The luminescent signal was measured using a Tecan Infinite M1000 multimode microplate reader (Tecan, Morrisville, N.C.). The readings were normalized to the DMSO-treated cells and the IC50 was calculated by nonlinear regression (four parameters sigmoid fitted with variable slope, least squares fit, and no constraint) analysis using the GraphPad Prism 5 software. See US 2014/0256706.

recombinant BRD4 BD1 = target: T2, recombinant BRD4 BD1 (Homo sapiens, UniProt O60885); test: Competitive fluorescence-polarization (FP) binding assay, BRD4 BD1; settings: protein 10 nM, probe 1.5 nM
T2 construct: recombinant BRD4 BD1 and BRD4 BD2 proteins
Protocol: Fluorescence Polarization (FP) competitive binding studies were carried out using a FAM labeled fluorescent probe, see Cpd. […] Equilibrium dissociation constants (Kd) values of the fluorescent probe to BRD4 BD1 and BD2 proteins were determined from protein saturation experiments by monitoring the total fluorescence polarization of mixtures composed with the fluorescent probe at a fixed concentration and proteins with increasing concentrations up to full saturation. […] Plates were incubated at room temperature for 30 minutes with gentle shaking to assure equilibrium.
The IC50 and Ki values of compounds were determined in a competitive binding experiment. […] Mixtures of 10 μl of the tested compounds in assay buffer with 40% Ethylene Glycol and 190 μl of preincubated protein/probe complex solution in the assay buffer (100 mM potassium phosphate, pH 6.5, 0.01% Triton X-100) were added into assay plates which were incubated at room temperature for 30 minutes with gentle shaking. Final concentrations of proteins were 10 and 6 nM in assays for BRD4 BD1 and BD2, respectively. […] FP values were measured as described above. IC50 values were determined by nonlinear regression fitting of the competition curves.

[1] = Homo sapiens, MOLM-13, 96 h, 4 days incubation, MOLM-13 cells
[2] = FP competitive binding, read-out: IC50 (nM) BRD4 BD1

IC50 (recombinant BRD4 BD2)	IC50 (MOLM-13; [1])	IC50 (recombinant BRD4 BD1; [2])	IC50 (MOLM-13; 4 days incubation, MOLM-13 cells)	SMILES	IC50 (MOLM-13; Homo sapiens, MOLM-13, 96 h)	IC50 (recombinant BRD4 BD1; IC50 (nM) BRD4 BD1, FP competitive binding)
285 nM	2.5 µM	311 nM	–	Cc1sc2c(c1Cc1cccc(Cl)c1)COCc1nnc(C)n1-2 [Cpd. No. 8, 3-(3-chlorobenzyl)-2,9-dimethyl-4H,6H-thieno[2,3-e][1,2,4]triazolo[3,4-c][1,4]oxazepine]	–	–
271 nM	1 µM	88.4 nM	–	Cc1sc2c(c1Cc1ccc(Cl)cc1)COCc1nnc(C)n1-2 [Cpd. No. 9, 3-(4-chlorobenzyl)-2,9-dimethyl-4H,6H-thieno[2,3-e][1,2,4]triazolo[3,4-c][1,4]oxazepine]	–	–
312 nM	3.4 µM	263 nM	–	Cc1sc2c(c1Cc1ccccc1Cl)COCc1nnc(C)n1-2 [Cpd. No. 10, 3-(2-chlorobenzyl)-2,9-dimethyl-4H,6H-thieno[2,3-e][1,2,4]triazolo[3,4-c][1,4]oxazepine]	–	–
326 nM	2.8 µM	229 nM	–	Cc1sc2c(c1Cc1ccccc1)CN(C(=O)OCc1ccccc1)[C@H](C)c1nnc(C)n1-2 [Cpd. No. 16, benzyl (R)-3-benzyl-2,6,9-trimethyl-4H-thieno[3,2-f][1,2,4]triazolo[4,3-a][1,4]diazepine-5(6H)-carboxylate]	–	–
636 nM and 1210 nM	1.3 µM	235 nM and 340 nM	–	Cc1sc2c(c1Cc1ccccc1)CN(C)[C@@H](C)c1nnc(C)n1-2 [Cpd. No. 20, (S)-3-benzyl-2,5,6,9-tetramethyl-5,6-dihydro-4H-thieno[3,2-f][1,2,4]triazolo[4,3-a][1,4]diazepine]	–	–
492 nM	3.4 µM	491 nM	–	C=C(c1ccccc1)c1c(C)sc2c1COCc1nnc(C)n1-2 [Cpd. No. 24, 2,9-dimethyl-3-(1-phenylvinyl)-4H,6H-thieno[2,3-e][1,2,4]triazolo[3,4-c][1,4]oxazepine]	–	–
2610 nM	> 5 µM	611 nM	–	Cc1sc2c(c1Cc1ccccc1)CN(CC1CC1)[C@@H](C)c1nnc(C)n1-2 [Cpd. No. 27, (S)-3-benzyl-5-(cyclopropylmethyl)-2,6,9-trimethyl-5,6-dihydro-4H-thieno[3,2-f][1,2,4]triazolo[4,3-a][1,4]diazepine]	–	–
–	1.4 µM	209 nM and 265 nM and 352 nM	1.7 µM	Cc1nnc2n1-c1sc(Br)c(Cc3ccccc3)c1COC2 [Cpd. No. 31, 3-benzyl-2-bromo-9-methyl-4H,6H-thieno[2,3-e][1,2,4]triazolo[3,4-c][1,4]oxazepine]	–	–
–	1.9 µM	294 nM	–	Cc1nnc2n1-c1sc(-c3ccc(N)nc3)c(Cc3ccccc3)c1COC2 [Cpd. No. 32, 5-(3-benzyl-9-methyl-4H,6H-thieno[2,3-e][1,2,4]triazolo[3,4-c][1,4]oxazepin-2-yl)pyridin-2-amine]	–	–
–	1 µM	–	–	C#Cc1sc2c(c1Cc1ccccc1)COCc1nnc(C)n1-2 [Cpd. No. 33, 3-benzyl-2-ethynyl-9-methyl-4H,6H-thieno[2,3-e][1,2,4]triazolo[3,4-c][1,4]oxazepine]	–	–
–	1 µM	–	–	Cc1sc2c(c1Cc1ccccc1)CN(C)[C@H](C)c1nnc(C)n1-2 [Cpd. No. 34, (R)-3-benzyl-2,5,6,9-tetramethyl-5,6-dihydro-4H-thieno[3,2-f][1,2,4]triazolo[4,3-a][1,4]diazepine]	–	–
–	2.2 µM	602 nM	–	Cc1sc2c(c1Cc1ccccc1)CN(C)Cc1nnc(C)n1-2 [Cpd. No. 35, 3-benzyl-2,5,9-trimethyl-5,6-dihydro-4H-thieno[3,2-f][1,2,4]triazolo[4,3-a][1,4]diazepine]	–	–
367 nM	–	1420 nM and 1260 nM	–	Cc1nnc2n1-c1cccc(Cc3ccccc3)c1COC2 [Cpd. No. 38, 7-benzyl-1-methyl-4,6-dihydrobenzo[e][1,2,4]triazolo[3,4-c][1,4]oxazepine]	–	–
1060 nM	–	5450 nM	–	Cc1nnc2n1-c1cccc(Sc3ccccc3)c1COC2 [Cpd. No. 39, 1-methyl-7-(phenylthio)-4,6-dihydrobenzo[e][1,2,4]triazolo[3,4-c][1,4]oxazepine]	–	–
16600 nM	–	18000 nM	–	Cc1nnc2n1-c1cccc([S+]([O-])c3ccccc3)c1COC2 (stereo not shown) [Cpd. No. 41, 1-methyl-7-(phenylsulfinyl)-4,6-dihydrobenzo[e][1,2,4]triazolo[3,4-c][1,4]oxazepine]	–	–
5020 nM	–	10300 nM	–	Cc1nnc2n1-c1cccc(S(=O)(=O)c3ccccc3)c1COC2 [Cpd. No. 42, 1-methyl-7-(phenylsulfonyl)-4,6-dihydrobenzo[e][1,2,4]triazolo[3,4-c][1,4]oxazepine]	–	–
328 nM	–	3530 nM	–	C=C(c1ccccc1)c1cccc2c1COCc1nnc(C)n1-2 [Cpd. No. 43, 1-methyl-7-(1-phenylvinyl)-4,6-dihydrobenzo[e][1,2,4]triazolo[3,4-c][1,4]oxazepine]	–	–
238 nM	–	4400 nM	–	Cc1nnc2n1-c1cccc(C3=CCc4ccccc43)c1COC2 [Cpd. No. 44, 7-(1H-inden-3-yl)-1-methyl-4,6-dihydrobenzo[e][1,2,4]triazolo[3,4-c][1,4]oxazepine]	–	–
1370 nM	–	1550 nM	–	Cc1nnc2n1-c1cccc(Cc3ccc(OC(F)(F)F)cc3)c1COC2 [Cpd. No. 45, 1-methyl-7-(4-(trifluoromethoxy)benzyl)-4,6-dihydrobenzo[e][1,2,4]triazolo[3,4-c][1,4]oxazepine]	–	–
303 nM	–	1200 nM	–	Cc1nnc2n1-c1cccc(C3CCc4ccccc43)c1COC2 (stereo not shown) [Cpd. No. 47, 7-(2,3-dihydro-1H-inden-1-yl)-1-methyl-4,6-dihydrobenzo[e][1,2,4]triazolo[3,4-c][1,4]oxazepine]	–	–
207 nM	–	256 nM	–	Cc1sc2c(c1C1=CCCc3ccccc31)COCc1nnc(C)n1-2 [Cpd. No. 51, 3-(3,4-dihydronaphthalen-1-yl)-2,9-dimethyl-4,6-dihydrothieno[2,3-e][1,2,4]triazolo[3,4-c][1,4]oxazepine]	–	–
> 10000 nM	–	> 10000 nM	–	Cc1nnc2n1-c1cccc(C(=O)c3ccccc3)c1COC2 [Cpd. No. 52, (1-methyl-4,6-dihydrobenzo[e][1,2,4]triazolo[3,4-c][1,4]oxazepin-7-yl)(phenyl)methanone]	–	–
127 nM	–	210 nM	–	Cc1sc2c(c1C1CCCc3ccccc31)COCc1nnc(C)n1-2 (stereo not shown) [Cpd. No. 54, 2,9-dimethyl-3-(1,2,3,4-tetrahydronaphthalen-1-yl)-4,6-dihydrothieno[2,3-e][1,2,4]triazolo[3,4-c][1,4]oxazepine]	–	–
–	–	–	–	Cc1nnc2n1-c1ccc(Cl)c(Cc3ccccc3)c1COC2 [Cpd. No. 71, 7-benzyl-8-chloro-1-methyl-4,6-dihydrobenzo[e][1,2,4]triazolo[3,4-c][1,4]oxazepine]	3.8 µM	864 nM
–	1.1 µM	234 nM and 366 nM	–	Cc1nnc2n1-c1ccc(-c3cnn(C)c3)c(Cc3ccccc3)c1COC2 [Cpd. No. 73, 7-benzyl-1-methyl-8-(1-methyl-1H-pyrazol-4-yl)-4,6-dihydrobenzo[e][1,2,4]triazolo[3,4-c][1,4]oxazepine]	–	–
3230 nM and 3850 nM and 3950 nM	–	1370 nM and 2610 nM and 1760 nM	–	Cc1sc2c(c1Cn1cccn1)COCc1nnc(C)n1-2 [Cpd. No. 112, 3-((1H-pyrazol-1-yl)methyl)-2,9-dimethyl-4H,6H-thieno[2,3-e][1,2,4]triazolo[3,4-c][1,4]oxazepine]	–	–
297 nM	–	249 nM	–	Cc1sc2c(c1Cc1ccccc1)CO[C@H](C)c1nnc(C)n1-2 [Cpd. No. 114, (R)-3-benzyl-2,6,9-trimethyl-4H,6H-thieno[2,3-e][,2,4]triazolo[3,4-c][1,4]oxazepine]	–	–
338 nM	–	170 nM	–	Cc1sc2c(c1Cc1ccccc1)COC(CC(=O)OC(C)(C)C)c1nnc(C)n1-2 (stereo not shown) [Cpd. No. 115, tert-butyl 2-(3-benzyl-2,9-dimethyl-4H,6H-thieno[2,3-e][1,2,4]triazolo[3,4-c][1,4]oxazepin-6-yl)acetate]	–	–
83700 nM	–	48600 nM	–	Cc1sc2c(c1Br)CN(C(=O)OCc1ccccc1)[C@@H](C)c1nnc(C)n1-2 [Cpd. No. 147, benzyl (S)-3-bromo-2,6,9-trimethyl-4H-thieno[3,2-f][1,2,4]triazolo[4,3-a][1,4]diazepine-5(6H)-carboxylate]	–	–

SMILES	IC50 (recombinant BRD4 BD2)	IC50 (MOLM-13; [1])	IC50 (recombinant BRD4 BD1; [2])	IC50 (MOLM-13; 4 days incubation, MOLM-13 cells)	IC50 (MOLM-13; Homo sapiens, MOLM-13, 96 h)	IC50 (recombinant BRD4 BD1; IC50 (nM) BRD4 BD1, FP competitive binding)
CCOC(=O)N1Cc2c(sc(C)c2Cc2ccccc2)-n2c(C)nnc2[C@@H]1C [Cpd. No. 18, ethyl (S)-3-benzyl-2,6,9-trimethyl-4H-thieno[3,2-f][1,2,4]triazolo[4,3-a][1,4]diazepine-5(6H)-carboxylate]	601 nM	–	532 nM	–	4.3 µM	–
